A melting point compilation (Tetko et al.; mined from patent text by program, amines drawn as free bases though some values may be those of a salt)

Point of comparison: `Cc1c(NC(=O)OCCCl)cc([N+](=O)[O-])c(N)c1C`, melting point 151 °C. Against it:
- CCCCNS(=O)(=O)c1ccc(N2CCC3(CC2)OCCO3)cc1 — lower, 122 to 124 °C
- CCCCCCCCCCCCCCCCS(N)(=O)=O — lower, 98 to 100 °C
- Nn1ncc2c1-c1cc3ccccc3nc1CC2 — higher, 235 °C
- COc1ccc(C=O)c(Br)c1 — lower, 73 to 74 °C
- CC(C)C(C)(C#N)N1C(=O)c2ccc3ccn(C)c3c2C1=O (centres undefined) — lower, 134 to 138 °C
- NC(=O)NCc1ccc(Cl)cc1 — higher, 186 to 189 °C
- COC(C)(C)C(=O)COc1ccc(Cl)cc1Cl — lower, 45.5 to 47.5 °C
- COc1cc2ncnc(N3CCN(C(=O)Nc4ccc(-n5cccc5)nc4)CC3)c2cc1OC — higher, 252 to 254 °C
- O=C1c2ccccc2C(=O)N1CCCCN1CCC(c2c[nH]c3ccccc23)CC1 — lower, 106 to 108 °C
- CN(C(=O)c1ccc(Cl)cc1)c1ccccc1CCCC(=O)O — lower, 123 °C
- C=CCC1CC(=O)N1C(C(=O)OCOC(=O)C(C)(C)C)=P(c1ccccc1)(c1ccccc1)c1ccccc1 (centres undefined) — lower, 140 to 142 °C
- Cc1cc(Cl)cc(C(=O)NNCC(=O)NCc2ccccc2)c1NC(=O)c1cc(Br)nn1-c1ncccc1Cl — lower, 120 to 121 °C
- CC(=O)OC1(C)CC(=O)OC(CCc2ccc(OCc3ccccc3)cc2)C1 (centres undefined) — lower, 98 to 101 °C
- CCCN1C(=O)C(NC(=O)Nc2cccc(N(C)c3nnn[nH]3)c2)N=C(N2CCN(C)CC2)c2ccccc21 (single isomer, unassigned; (-)) — lower, 141 to 142 °C
- Cc1cc(CO)nc(Nc2ccccc2)n1 — lower, 118 to 120 °C
- COC(=O)c1sccc1NS(=O)(=O)c1nc2nc(C3CC3)cc(C)n2n1 — lower, 133 to 134 °C
- Nc1c(CCO)cccc1C(=O)c1ccc(Cl)cc1 — lower, 111 to 126 °C
- CCNc1cc(Nc2ccc(OC)cc2)ncn1 — higher, 190 to 193 °C
- COc1ccc(Cn2c(=O)n(C3CCCCC3)c3cc(Cl)ccc32)cc1OC — lower, 59 °C
- CC(=O)SCC(CCCc1ccccc1)C(=O)Nc1cccc(C(=O)O)c1 (centres undefined) — lower, 142 to 145 °C
- CC(C)(CCl)C(=O)N(O)Cc1ccccc1Br — lower, 119 to 121 °C
- Oc1cc(C(O)C2CCCCC2)c2ccccc2n1 (centres undefined) — higher, > 250 °C
- CS(=O)(=O)c1ccc(-c2cnn(CC(F)(F)F)c(=O)c2Oc2ccc(C#N)cc2)cc1 — higher, 179 to 181 °C
- COc1cc(Cc2cnc(NOC3CCCCO3)nc2NO)cc(OC)c1OC (centres undefined) — higher, 190 to 192 °C
- CCCc1c(OCCOCCOc2c(C(C)=O)ccc(OCCCCCC(=O)O)c2CCC)ccc(C(C)=O)c1O — lower, 55 to 57 °C
- OC1CCN(c2cc(-c3ccccc3)nc(-c3ccccc3)n2)CC1 — higher, 158 to 160 °C
- O=C(O)CCCc1cc2cc(Cl)ccc2n1S(=O)(=O)c1cccc2ccccc12 — higher, 206 to 210 °C
- CC1(C)NC(=S)NC1=S — lower, 144 °C
- Oc1ccc(CCn2ccn(C3CCc4ccccc4C3)c2=S)cc1O (centres undefined) — higher, 165 to 167 °C
- COc1cc(Oc2ccc(C(=O)N(C(C)C)C3CCCCC3)cc2)cc(OC)c1OC — lower, 124 °C
- O=C(O)c1cc(=O)c2cc3c(c(CC(O)CO)c2o1)CCCC3 (centres undefined) — higher, 217 to 218 °C
- CC(C)(C)OC(=O)c1ncn2c1[C@@H]1CCCN1C(=O)c1c(Cl)cccc1-2 — higher, 216 to 217 °C
- O=C1C(c2ccccc2)=C(c2ccccc2Cl)C(=O)N1c1ccc(Cl)cc1 — lower, 46 °C
- O=C(NCCCn1cncn1)c1ccc(Cl)c(Cl)c1 — lower, 128 to 130 °C
- CCCC(C(=O)N(C)C)n1cc(Cl)c(-c2ccccc2)n1 (centres undefined) — lower, 85 to 87 °C
- CCCCCCCCCCNC(=O)c1cc(NCC(=O)O)cc(C(=O)NCCCCCCCCCC)c1 — higher, 172 to 173 °C
- O=C(COc1ccc2ccccc2c1)N1CCCN(c2cc(N3CCCC3)nc(N3CCCC3)n2)CC1 — lower, 103 to 110 °C
- COc1ccc(C(=O)Nc2ccc3ccc(Oc4ccccc4OC)nc3n2)cc1 — higher, 168 to 170 °C
- O=C(NCc1ccc(Cl)cc1)c1cn2c(CSc3ccccc3)cc3cc(CN4CCOCC4)cc(c1=O)c32 — higher, 173 to 175 °C
- CCOC(=O)C(C#N)=Cc1cc(OC)c(N)c(OC)c1 — lower, 77 to 78 °C
- CC1(C)OC(=O)c2c(cccc2OS(=O)(=O)C(F)(F)F)O1 — lower, 115 °C
- CCOC(=O)C1=C(C)NC(=S)N(C(=O)c2ccc(OC)cc2)C1c1cccc([N+](=O)[O-])c1 (centres undefined) — lower, 130 to 132 °C
- CC(=O)NCCC1CCc2ccn3nc(C)cc3c21 (centres undefined) — lower, 106 to 107 °C
- COC(=O)NCc1nc(-c2cc(C(C)(C)C)c(O)c(C(C)(C)C)c2)cs1 — lower, 94 to 95.9 °C
- ClC1(CN2c3ccccc3Sc3ccccc32)CN2CCC1CC2 (centres undefined) — higher, 156 to 160 °C
- CS(=O)(=O)c1ccc(-c2nc(C(F)(F)F)nc(NN)c2-c2ccccc2)cc1 — higher, 272 to 275 °C
- CCCCc1ncc(C=C2C(=O)NC(=O)N2Cc2ccc(Cl)cc2)n1Cc1ccc(C(=O)O)cc1 — higher, 225 to 227 °C
- Cn1ccnc1SCC(O)(Cn1cncn1)c1ccc(Cl)cc1Cl (centres undefined) — higher, 159 to 161 °C
- COc1ccc2c(c1)C1=C(SCC3(CCN(CC(O)COc4ccc(F)cc4)CC3)O1)C(=O)C2=O (centres undefined) — lower, 80 to 81 °C
- CC(=O)Nc1ccc(-c2cccc(-n3c(-c4cccnc4N)nc4cc(-c5cccc(NC(C)=O)c5)c(-c5cccnc5)nc43)c2)cc1 — higher, 166 to 168 °C
- COc1ccc(C2=CC(=Nc3c(C)cc(C)cc3C)N(C)CN2)cc1OC — higher, 165 to 166 °C
- COC(=O)N=c1[nH]c2ccccc2n1C1CCN(Cc2ccccc2)CC1 — higher, 170 °C
- Cc1cc(Cl)c(C(=O)c2ccc(Cl)cc2)c(Cl)c1 — lower, 112 to 114 °C
- N#Cc1ccc(OCCNc2ccc(C(=O)O)cc2)c2ccccc12 — higher, 254 to 256 °C
- CS(=O)(=O)c1ccc(-c2cnn(-c3ccc(Cl)c(F)c3)c(=O)c2-c2ccc(F)cc2)cc1 — lower, 102 to 110 °C
- O=C(NCCN1CCC(O)(c2ccc(Cl)cc2)CC1)c1cccs1 — higher, 153 °C
- CCCOc1ccc(C(N)=O)cc1-c1ccc(C#N)c(=O)[nH]1 — higher, 246 to 247 °C
- COC1([N+](=O)[O-])C=C([N+](=O)[O-])C=CC1O (centres undefined) — lower, 68 to 70 °C
- COC(=O)c1nc(-c2ccc(Cl)cc2)c(Cl)c(N)c1OC — lower, 139 to 141 °C
- Cn1ccnc1Sc1ccc(Nc2c(C#N)cnc3cc(-c4ccc(N5CCSCC5)nc4)ccc23)cc1Cl — higher, > 260 °C
- COc1ccc2c(c1)OCC(c1ccccc1)C2c1ccc(OCCN2CCCC2)cc1 (centres undefined) — lower, 113 to 114 °C
- CS(=O)(=O)OC1=C(C(=O)O)N2C(=O)[C@@H](NC(=O)Cc3ccccc3)[C@H]2CN1 (racemic) — lower, 115 to 117 °C
- COc1ccc(NC(=O)c2ccc(Cl)c(Cl)c2)cc1NS(=O)(=O)c1ccc(C)cc1 — higher, 228 to 230 °C
- COc1ccc(CNc2nc(SC)ncc2C(O)c2nccn2C)cc1Cl (centres undefined) — higher, 179 to 180 °C
- Cc1nnc2n1-c1ccc(C#CCn3nc4ccccn4c3=O)cc1C(c1ccccc1F)=NC2 — higher, 170 to 173 °C
- NC(=O)c1cc(OCCNCC(O)c2ccccn2)ccc1O (centres undefined) — higher, 169 to 170 °C
- Cc1c(NC(=O)NCCO)c(C)c2c(c1-c1ccccc1)OCC2c1ccc(C(C)C)cc1 (centres undefined) — higher, 152 to 155 °C
- O=C1NC(=O)c2ccccc2/C1=C/Nc1ccc2ncccc2c1 — higher, 277 to 278 °C
- O=C(Oc1ccccc1N1c2ccccc2Sc2ccccc21)c1ccccc1 — lower, 144 to 148 °C
- Cc1cccc(C)c1NC(=O)c1ccc(N)cc1 — higher, 212 to 215 °C
- CCn1nc(C(=O)OC)cc1C — higher, 165 to 168 °C
- Nc1ccc(C2CCN(c3ccncc3)CC2)cc1 — higher, 196 to 197 °C
- CC(C)(C#N)Cc1cccc(-c2cccc(CC(C)(C)C#N)c2)c1 — lower, 96 to 103 °C
- CC(=O)Nc1cccc(-c2cnc3[nH]cc(C(=O)C(C)(C)C)c3n2)c1 — higher, 249 to 250 °C
- C[C@@H]1CNCc2cc3cccc(OC(F)(F)F)c3n21 — lower, 58 to 60 °C
- OC(Cc1ccccc1)Cc1ccccc1 — lower, 107 to 109 °C
- COc1ccc2[nH]cc(CC3=CCCN(CCCC(=NO)c4ccc(F)cc4)C3)c2c1 — lower, 129 to 130 °C
- Cc1cccc(Oc2nc(-c3c[nH]nc3C)cs2)n1 — lower, 138 to 139 °C
- CN1CC=C(c2c[nH]c3ccc(Oc4ccccc4)cc23)CC1 — lower, 135 to 137 °C
- Nc1cccc(-c2ccnc3c(C(=O)c4cccs4)cnn23)c1 — higher, 183 to 184 °C
- CCCCCCc1cc2c(s1)-n1c(C)nnc1C(C)N=C2c1ccccc1C (centres undefined) — lower, 83 to 85 °C
- COCCNC(=O)Nc1nc2ccc(Sc3nnc4ccccn34)cc2s1 — higher, 252 to 257 °C
- CCCCc1nc2c(=O)n(Cc3ccc(-c4ccccc4C#N)cc3)ccc2n1Cc1ccc(-c2ccccc2C#N)cc1 — lower, 83 °C
- C#Cc1ccc(-c2c(F)cccc2F)cc1 — lower, 81 to 83 °C
- COC(=O)Oc1ccc(CNC=C2C(=O)NC(=O)c3ccc(Br)cc32)cc1OC(=O)OC — higher, 239 to 240 °C
- N#CC(Cc1ccco1)(Cn1cncn1)c1ccc(Cl)cc1 (centres undefined) — lower, 112 to 114 °C
- CN(C(=O)c1ccc2nonc2c1)C1CCCCCC1 — lower, 80 to 81 °C
- Cn1ccn(-c2ccc(N3CCN(c4ccc(O)cc4)CC3)cc2)c1=O — higher, 283 °C
- CCOc1cc2ncc(C#N)c(Nc3ccc4c(c3)S(=O)(=O)C=C4)c2cc1OCC — higher, 155 to 160 °C
- CCC(=O)N1CCC(=O)c2cc(Cl)c(Cl)cc21 — lower, 135 to 137 °C
- CCOC(=O)CC(CC(=O)Nc1ccc(Cl)c(C=C(Cl)C(=O)OCC)c1)C(F)(F)F (centres undefined) — lower, 115 to 117 °C
- O=C1C(=O)N2c3c(cccc31)OCC2c1ccccc1 (centres undefined) — higher, 169 to 171 °C
- c1ccc(C(=C(c2ccccc2)P(C2CCCCC2)C2CCCCC2)c2ccccc2)cc1 — lower, 121 to 123 °C
- CCOC(=O)c1sc2[nH]c(=O)c(=O)[nH]c2c1C — higher, > 300 °C
- CCCNCc1cnc(-c2ncn3c2[C@@H]2CCN2C(=O)c2sccc2-3)o1 — lower, 145 to 147 °C
- COC(=O)C=Cc1ccc(C(=O)Nc2ccncc2)cc1 — higher, 209 to 211 °C
- CCCC1(OCCO)CCNCC1 — lower, 72 °C
- CNCC(=O)Nc1ccc(C2=NN(C(C)=O)C(C)Cc3cc4c(cc32)OCO4)cc1 (centres undefined) — higher, 220 to 222 °C
